How the values were obtained:
Test in all cases: BioPrint Profile Panel
Assay type in all cases: biochemical
[1] = target: T1, ACE (Homo sapiens, UniProt P12821); details: Non-Kinase Enzyme, read-out: % of specific inhibition
T1 construct: purchased Eurofins Discovery (Cerep) BioPrint Profile Panel
Description: (§1) The BioPrint® Profile Panel service offered by Eurofins Discovery (Poitiers, France) was chosen to perform selectivity analysis.

[2] = tested on: ATPase (Na+/K+); details: 10 μM; Non-Kinase Enzyme
Description: as §1

[3] = target: T2, Abl kinase (Homo sapiens, UniProt P00519); details: read-out: % of specific inhibition
T2 construct: purchased Eurofins Discovery (Cerep) BioPrint Profile Panel
T2 sequence (P00519 whole entry): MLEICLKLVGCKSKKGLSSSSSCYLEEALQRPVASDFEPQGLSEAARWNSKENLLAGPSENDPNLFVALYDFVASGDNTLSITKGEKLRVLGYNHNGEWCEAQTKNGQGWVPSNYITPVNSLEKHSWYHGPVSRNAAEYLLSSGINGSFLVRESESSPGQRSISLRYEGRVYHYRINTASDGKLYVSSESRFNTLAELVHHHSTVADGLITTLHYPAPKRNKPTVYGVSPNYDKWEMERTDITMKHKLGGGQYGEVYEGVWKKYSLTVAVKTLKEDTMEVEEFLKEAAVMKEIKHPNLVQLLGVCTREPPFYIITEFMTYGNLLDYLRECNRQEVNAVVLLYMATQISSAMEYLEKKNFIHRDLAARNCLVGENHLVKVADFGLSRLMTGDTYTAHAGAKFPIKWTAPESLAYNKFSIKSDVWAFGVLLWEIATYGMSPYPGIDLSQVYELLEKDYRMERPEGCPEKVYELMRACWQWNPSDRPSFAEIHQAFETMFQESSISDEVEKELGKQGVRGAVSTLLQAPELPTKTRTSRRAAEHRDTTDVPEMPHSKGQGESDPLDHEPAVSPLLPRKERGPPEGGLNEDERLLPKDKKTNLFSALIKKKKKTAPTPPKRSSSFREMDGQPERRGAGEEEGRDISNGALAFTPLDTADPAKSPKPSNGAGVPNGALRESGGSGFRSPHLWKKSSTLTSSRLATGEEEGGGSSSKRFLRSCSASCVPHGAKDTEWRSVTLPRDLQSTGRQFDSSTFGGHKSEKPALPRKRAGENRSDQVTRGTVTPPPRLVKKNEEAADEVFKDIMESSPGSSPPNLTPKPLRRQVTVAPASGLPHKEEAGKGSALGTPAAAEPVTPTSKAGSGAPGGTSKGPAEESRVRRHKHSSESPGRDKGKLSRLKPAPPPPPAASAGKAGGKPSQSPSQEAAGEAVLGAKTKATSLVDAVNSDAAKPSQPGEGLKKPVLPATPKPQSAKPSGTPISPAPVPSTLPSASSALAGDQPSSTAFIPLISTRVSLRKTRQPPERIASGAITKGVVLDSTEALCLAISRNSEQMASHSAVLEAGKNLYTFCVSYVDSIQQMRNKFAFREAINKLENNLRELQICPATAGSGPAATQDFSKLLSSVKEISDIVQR
Description: as §1

[4] = target: T3, BACE-1 (Homo sapiens, UniProt P56817); details: Non-Kinase Enzyme, read-out: % of specific inhibition
T3 construct: purchased Eurofins Discovery (Cerep) BioPrint Profile Panel
Description: as §1

[5] = target: T4, CDK2 (Homo sapiens, UniProt P24941); details: Kinase, read-out: % of specific inhibition
T4 construct: purchased Eurofins Discovery (Cerep) BioPrint Profile Panel
Description: as §1

[6] = target: T5, COX1 (Homo sapiens, UniProt P23219); details: Non-Kinase Enzyme, read-out: % of specific inhibition
T5 construct: purchased Eurofins Discovery (Cerep) BioPrint Profile Panel
Description: as §1

[7] = target: T6, COX2 (Homo sapiens, UniProt P35354); details: Non-Kinase Enzyme
T6 construct: purchased Eurofins Discovery (Cerep) BioPrint Profile Panel
T6 sequence (P35354 18-604): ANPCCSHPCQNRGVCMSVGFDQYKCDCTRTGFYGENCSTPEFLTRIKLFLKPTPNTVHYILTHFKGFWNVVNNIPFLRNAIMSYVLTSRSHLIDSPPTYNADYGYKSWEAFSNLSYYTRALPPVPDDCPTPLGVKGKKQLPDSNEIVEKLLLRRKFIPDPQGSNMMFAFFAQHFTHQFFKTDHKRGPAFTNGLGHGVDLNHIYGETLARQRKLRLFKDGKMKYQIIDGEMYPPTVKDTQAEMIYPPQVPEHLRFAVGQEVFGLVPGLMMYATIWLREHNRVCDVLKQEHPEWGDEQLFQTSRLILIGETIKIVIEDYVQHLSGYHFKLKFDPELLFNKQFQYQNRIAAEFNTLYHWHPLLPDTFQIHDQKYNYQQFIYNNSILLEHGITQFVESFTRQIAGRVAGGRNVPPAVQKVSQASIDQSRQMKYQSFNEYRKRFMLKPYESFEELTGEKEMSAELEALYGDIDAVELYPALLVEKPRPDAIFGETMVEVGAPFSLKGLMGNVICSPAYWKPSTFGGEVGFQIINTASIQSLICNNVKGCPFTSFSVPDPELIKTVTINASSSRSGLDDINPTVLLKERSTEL
Description: as §1

[8] = target: T7, CaMK2α (Homo sapiens, UniProt Q9UQM7); details: Kinase, read-out: % of specific inhibition
T7 construct: purchased Eurofins Discovery (Cerep) BioPrint Profile Panel
Description: as §1

[9] = target: T8, ERK2 (Homo sapiens, UniProt P28482); details: Kinase, read-out: % of specific inhibition
T8 construct: purchased Eurofins Discovery (Cerep) BioPrint Profile Panel
Description: as §1

[10] = target: T9, FLT-1 kinase (Homo sapiens, UniProt P17948); details: read-out: % of specific inhibition
T9 construct: purchased Eurofins Discovery (Cerep) BioPrint Profile Panel
Description: as §1

[11] = target: T10, Fyn kinase (Homo sapiens, UniProt P06241); details: read-out: % of specific inhibition
T10 construct: purchased Eurofins Discovery (Cerep) BioPrint Profile Panel
Description: as §1

[12] = tested on: HIV-1 protease; details: 10 μM; Non-Kinase Enzyme
Description: as §1

[13] = target: T11, Lyn A kinase (Homo sapiens, UniProt P07948)
T11 construct: purchased Eurofins Discovery (Cerep) BioPrint Profile Panel
T11 sequence (P07948 whole entry): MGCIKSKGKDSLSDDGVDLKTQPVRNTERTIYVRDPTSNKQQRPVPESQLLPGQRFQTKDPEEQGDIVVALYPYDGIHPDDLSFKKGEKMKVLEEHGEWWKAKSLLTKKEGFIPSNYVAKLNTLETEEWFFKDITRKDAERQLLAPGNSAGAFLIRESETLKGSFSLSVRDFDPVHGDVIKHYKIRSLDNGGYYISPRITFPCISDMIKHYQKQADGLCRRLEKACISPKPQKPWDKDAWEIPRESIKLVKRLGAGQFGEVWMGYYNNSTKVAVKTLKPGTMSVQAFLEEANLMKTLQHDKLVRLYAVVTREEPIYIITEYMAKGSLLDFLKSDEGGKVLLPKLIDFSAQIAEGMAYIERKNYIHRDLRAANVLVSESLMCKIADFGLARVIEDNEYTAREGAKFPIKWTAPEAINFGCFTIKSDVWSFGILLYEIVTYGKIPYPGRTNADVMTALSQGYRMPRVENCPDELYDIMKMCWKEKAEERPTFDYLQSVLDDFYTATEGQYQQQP
Description: as §1

[14] = target: T12, MMP-2 (Homo sapiens, UniProt P08253); details: Non-Kinase Enzyme
T12 construct: purchased Eurofins Discovery (Cerep) BioPrint Profile Panel
T12 sequence (P08253 110-660): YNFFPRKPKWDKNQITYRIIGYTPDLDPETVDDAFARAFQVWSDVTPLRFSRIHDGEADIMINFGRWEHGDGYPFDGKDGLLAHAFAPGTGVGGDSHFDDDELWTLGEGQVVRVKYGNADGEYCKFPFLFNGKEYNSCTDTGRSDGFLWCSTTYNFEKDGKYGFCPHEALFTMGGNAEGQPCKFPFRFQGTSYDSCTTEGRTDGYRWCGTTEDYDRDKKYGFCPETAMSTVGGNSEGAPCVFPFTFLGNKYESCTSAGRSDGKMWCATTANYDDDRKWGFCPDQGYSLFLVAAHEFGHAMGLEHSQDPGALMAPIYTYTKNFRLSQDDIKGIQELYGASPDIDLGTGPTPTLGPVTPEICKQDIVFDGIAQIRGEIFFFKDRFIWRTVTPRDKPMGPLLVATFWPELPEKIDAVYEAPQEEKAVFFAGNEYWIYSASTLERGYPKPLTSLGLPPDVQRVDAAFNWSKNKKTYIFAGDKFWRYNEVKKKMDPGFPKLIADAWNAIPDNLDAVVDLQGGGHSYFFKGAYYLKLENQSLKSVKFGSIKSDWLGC
Description: as §1

[15] = target: T13, MMP-9 (Homo sapiens, UniProt P14780); details: Non-Kinase Enzyme, read-out: % Inhibition of Control Specific Binding
T13 construct: purchased Eurofins Discovery (Cerep) BioPrint Profile Panel
Description: as §1

[16] = target: PDE2A1 (Homo sapiens, UniProt O00408); details: Non-Kinase Enzyme, read-out: % of specific inhibition
Chain of PDE2A1 (O00408 49-941 limits assumed): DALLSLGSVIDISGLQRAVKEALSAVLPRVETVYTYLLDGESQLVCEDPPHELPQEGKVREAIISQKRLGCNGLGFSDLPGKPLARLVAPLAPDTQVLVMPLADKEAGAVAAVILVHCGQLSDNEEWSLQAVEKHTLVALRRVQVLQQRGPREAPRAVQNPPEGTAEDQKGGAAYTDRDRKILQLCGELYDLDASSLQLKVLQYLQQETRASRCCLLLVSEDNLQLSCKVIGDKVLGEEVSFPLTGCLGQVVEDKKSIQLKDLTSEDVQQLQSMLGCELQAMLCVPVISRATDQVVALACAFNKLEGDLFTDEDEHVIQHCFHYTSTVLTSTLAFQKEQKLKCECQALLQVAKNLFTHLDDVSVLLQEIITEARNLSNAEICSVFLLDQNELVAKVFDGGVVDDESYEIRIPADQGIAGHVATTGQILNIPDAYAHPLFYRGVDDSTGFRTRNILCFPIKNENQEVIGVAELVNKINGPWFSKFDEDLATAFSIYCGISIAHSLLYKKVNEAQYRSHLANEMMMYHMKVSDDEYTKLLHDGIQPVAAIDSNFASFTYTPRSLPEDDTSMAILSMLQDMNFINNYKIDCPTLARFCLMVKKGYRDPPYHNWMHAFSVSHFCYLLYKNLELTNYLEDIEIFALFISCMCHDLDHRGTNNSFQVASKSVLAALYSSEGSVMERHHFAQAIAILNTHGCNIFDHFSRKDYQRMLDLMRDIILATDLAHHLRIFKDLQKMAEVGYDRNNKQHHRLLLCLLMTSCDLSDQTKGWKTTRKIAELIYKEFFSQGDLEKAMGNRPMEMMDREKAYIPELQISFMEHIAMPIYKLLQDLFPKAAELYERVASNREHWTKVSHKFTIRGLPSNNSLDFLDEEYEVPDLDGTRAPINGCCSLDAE
Description: as §1

[17] = target: T14, PDE3B (Homo sapiens, UniProt Q13370); details: Non-Kinase Enzyme, read-out: % of specific inhibition
T14 construct: purchased Eurofins Discovery (Cerep) BioPrint Profile Panel
Description: as §1

[18] = target: T15, PDE5 (Homo sapiens, UniProt O76074); details: Non-Kinase Enzyme, read-out: % of specific inhibition
T15 construct: purchased Eurofins Discovery (Cerep) BioPrint Profile Panel
Description: as §1

[19] = tested on: PDE6; details: 10 μM; Non-Kinase Enzyme
Description: as §1

[20] = target: T16, Xanthine oxidase/ superoxide O2-scavenging (Bos taurus, UniProt P80457); details: Non-Kinase Enzyme
T16 construct: purchased Eurofins Discovery (Cerep) BioPrint Profile Panel
T16 sequence (P80457 whole entry): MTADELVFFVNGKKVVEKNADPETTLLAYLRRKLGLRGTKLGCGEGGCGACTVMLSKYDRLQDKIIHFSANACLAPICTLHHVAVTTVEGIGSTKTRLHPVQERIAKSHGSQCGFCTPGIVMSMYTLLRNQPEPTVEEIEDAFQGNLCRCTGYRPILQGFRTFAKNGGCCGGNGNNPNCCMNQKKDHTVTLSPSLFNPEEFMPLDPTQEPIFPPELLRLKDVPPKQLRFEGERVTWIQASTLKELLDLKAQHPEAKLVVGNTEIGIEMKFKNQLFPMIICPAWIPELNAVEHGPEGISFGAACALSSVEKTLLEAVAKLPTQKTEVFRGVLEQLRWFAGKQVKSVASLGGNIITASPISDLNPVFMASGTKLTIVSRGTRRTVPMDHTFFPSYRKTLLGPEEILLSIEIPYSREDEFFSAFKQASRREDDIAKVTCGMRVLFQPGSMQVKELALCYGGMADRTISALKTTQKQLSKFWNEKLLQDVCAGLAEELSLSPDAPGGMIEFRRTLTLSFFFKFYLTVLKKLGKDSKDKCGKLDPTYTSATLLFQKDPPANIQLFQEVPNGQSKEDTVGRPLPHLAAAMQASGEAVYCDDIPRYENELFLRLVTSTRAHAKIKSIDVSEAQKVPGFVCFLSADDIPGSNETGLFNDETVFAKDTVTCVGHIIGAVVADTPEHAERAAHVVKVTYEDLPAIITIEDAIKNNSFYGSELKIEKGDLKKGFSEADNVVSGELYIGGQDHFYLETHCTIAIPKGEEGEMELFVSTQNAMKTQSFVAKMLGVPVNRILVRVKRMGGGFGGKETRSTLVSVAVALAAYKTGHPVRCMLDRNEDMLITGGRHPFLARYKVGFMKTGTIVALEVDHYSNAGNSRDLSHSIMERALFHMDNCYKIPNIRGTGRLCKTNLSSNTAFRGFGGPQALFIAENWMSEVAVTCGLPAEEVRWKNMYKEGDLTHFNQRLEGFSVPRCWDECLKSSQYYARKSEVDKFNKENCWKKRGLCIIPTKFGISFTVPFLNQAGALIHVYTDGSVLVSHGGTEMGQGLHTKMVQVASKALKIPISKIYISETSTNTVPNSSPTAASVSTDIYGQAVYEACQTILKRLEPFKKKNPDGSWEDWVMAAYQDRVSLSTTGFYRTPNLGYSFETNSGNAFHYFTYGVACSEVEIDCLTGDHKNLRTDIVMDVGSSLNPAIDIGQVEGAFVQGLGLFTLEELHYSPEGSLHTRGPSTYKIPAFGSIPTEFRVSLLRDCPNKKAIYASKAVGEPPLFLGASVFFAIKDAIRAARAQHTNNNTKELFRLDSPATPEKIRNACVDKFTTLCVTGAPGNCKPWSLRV
Description: as §1

[21] = target: T17, acetylcholinesterase (Homo sapiens, UniProt P22303); details: Non-Kinase Enzyme, read-out: % of specific inhibition
T17 construct: purchased Eurofins Discovery (Cerep) BioPrint Profile Panel
Description: as §1

[22] = tested on: inducible NOS; details: 10 μM; Non-Kinase Enzyme
Description: as §1

[23] = target: T18, p38α kinase (Homo sapiens, UniProt Q16539); details: read-out: % of specific inhibition
T18 construct: purchased Eurofins Discovery (Cerep) BioPrint Profile Panel
Description: as §1

[24] = read-out: % Inhibition of Control Specific Binding

Q: What does the source list for O=c1cc(-c2ccccc2)oc2c(O)c(O)ccc12 [7,8-DHF, 7,8-dihydroxyflavone]?
A: inhibition at 10 µM [1]: 5%; % of specific inhibition [2]: -2%; inhibition at 10 µM [3]: 25%; inhibition at 10 µM [4]: 15%; inhibition at 10 µM [5]: 0%; inhibition at 10 µM [6]: 49%; % Inhibition of Control Specific Binding ([7]; 10 μM): 81.6%; inhibition at 10 µM [7, 24]: 82%; inhibition at 10 µM [8]: -20%; inhibition at 10 µM [9]: -23%; inhibition at 10 µM [10]: 17%; inhibition at 10 µM [11]: 21%; % of specific inhibition [12]: 1%; % Inhibition of Control Specific Binding ([13]; 10 μM): 52.6%; inhibition at 10 µM [13, 24]: 53%; % Inhibition of Control Specific Binding ([14]; 10 μM): 56.5%; inhibition at 10 µM [14, 24]: 56%; inhibition at 10 µM [15]: 72%; inhibition at 10 µM [16]: 5%; inhibition at 10 µM [17]: 11%; inhibition at 10 µM [18]: 48%; % of specific inhibition [19]: 30%; % Inhibition of Control Specific Binding ([20]; 10 μM): 91.5%; inhibition at 10 µM [20, 24]: 92%; inhibition at 10 µM [21]: 5%; % of specific inhibition [22]: 3%; inhibition at 10 µM [23]: -50%

Source: article PMC8398766, “Do Small Molecules Activate the TrkB Receptor in the Same Manner as BDNF? Limitations of Published TrkB Low Molecular Agonists and Screening for Novel TrkB Orthosteric Agonists” (Pharmaceuticals, 2021)
